The values that follow come from PMC5927115 (Japanese Journal of Cancer Research : Gann, 2002).

Usually IC50 stands for the concentration that gives 50% inhibition.

Each structure is given as a SMILES string. Where two headings read alike, the source gives them in different places.

Assay [1] has as its system receptor for fibroblast growth factor. As to conditions: ATP-binding site of the catalytic domain; cited from earlier work.
Assay [2] concerns the target T1, v-Src (Rous sarcoma virus, UniProt P00524). As to conditions: cited from earlier work.
Assay [3] relates to EGFR. The following applies: cited from earlier work.
Assay [4] has as its target catalytic subunit of protein kinase A (Bos taurus, UniProt P00517). The experiment in a line: Activity of isolated catalytic subunit of protein kinase A. It is filed as biochemical, bovine. As to conditions: treatment with as much as 100 M; results not shown.
Another assay deals with PTK. The format is biochemical. The following applies: SR-3Y1 lysate.
The next assay concerns the target KDR/Flk-1 (Homo sapiens, UniProt P35968). In words: PTK activity in KDR/Flk-1-NIH3T3 cells. It is filed as cell-based.
Another assay has as its system protein kinase C. In words: Simultaneous protein kinase detection in SR-3Y1 lysate: protein kinase C bands. It is filed as biochemical.
In assay [5] the target is T1, v-Src. In words: PTK activity of immunopurified v-Src, 32P incorporation into Raytide. It is filed as biochemical. The following applies: for mode of inhibition of v-Src with respect to ATP: various ATP concentrations.
The subject of another assay is NCI-H522. The experiment in a line: Cell death in human cancer cell line panel. The format is cell-based. The following applies: NCI-H522 lung cancer cells, 48 h.
Another assay deals with A431 cells. In words: Cell-growth inhibition of carcinoma A431 cells. The format is cell-based. The following applies: Homo sapiens, A-431, read-out: IC50 for cell-growth inhibition.
The target of another assay is Flt-1 (Homo sapiens, UniProt P17948). In words: PTK activity in Flt-1-overexpressing NIH3T3 cells. It is filed as cell-based.
The next assay has as its system DMS114. The experiment in a line: Cell death in human cancer cell line panel. As to conditions: DMS114 lung cancer cells, 48 h. The format is cell-based.
Assay [6] deals with eukaryotic elongation factor-2 kinase, and calmodulin-dependent protein kinase III (Rattus norvegicus, UniProt P70531). In words: Simultaneous protein kinase detection in SR-3Y1 lysate: eEF-2K, CaMK III bands. The format is biochemical.
A further assay relates to protein kinase A. The experiment in a line: Simultaneous protein kinase detection in SR-3Y1 lysate: protein kinase A bands. The format is biochemical.
The test system of another assay is HL-60 cells. The following applies: cited from earlier work.
For assay [7], the target named is EGFR (Homo sapiens, UniProt P00533). The experiment in a line: PTK. The format is biochemical.
A further assay deals with SR-3Y1 cells. The experiment in a line: Cell-growth inhibition of SR-3Y1 cells. It is filed as cell-based. As to conditions: SR3Y1, read-out: IC50 for cell-growth inhibition.
The subject of another assay is topoisomerases II. The following applies: cited from earlier work.
Assay [8] relates to 37 lines of cancer cells derived from human solid tumors. In words: Cell death in panel of 37 lines of cancer cells derived from human solid tumors. The format is cell-based. The following applies: 37 human solid tumor lines, 48 h.
The subject of another assay is topoisomerases I. As to conditions: cited from earlier work.
For another assay, the system named is sarcoma 180 tumor cells. The following applies: mice implanted with sarcoma 180 tumor cells; cited from earlier work.

EGFR (Homo sapiens, UniProt P00533), sequence (P00533 25-1210, looked up): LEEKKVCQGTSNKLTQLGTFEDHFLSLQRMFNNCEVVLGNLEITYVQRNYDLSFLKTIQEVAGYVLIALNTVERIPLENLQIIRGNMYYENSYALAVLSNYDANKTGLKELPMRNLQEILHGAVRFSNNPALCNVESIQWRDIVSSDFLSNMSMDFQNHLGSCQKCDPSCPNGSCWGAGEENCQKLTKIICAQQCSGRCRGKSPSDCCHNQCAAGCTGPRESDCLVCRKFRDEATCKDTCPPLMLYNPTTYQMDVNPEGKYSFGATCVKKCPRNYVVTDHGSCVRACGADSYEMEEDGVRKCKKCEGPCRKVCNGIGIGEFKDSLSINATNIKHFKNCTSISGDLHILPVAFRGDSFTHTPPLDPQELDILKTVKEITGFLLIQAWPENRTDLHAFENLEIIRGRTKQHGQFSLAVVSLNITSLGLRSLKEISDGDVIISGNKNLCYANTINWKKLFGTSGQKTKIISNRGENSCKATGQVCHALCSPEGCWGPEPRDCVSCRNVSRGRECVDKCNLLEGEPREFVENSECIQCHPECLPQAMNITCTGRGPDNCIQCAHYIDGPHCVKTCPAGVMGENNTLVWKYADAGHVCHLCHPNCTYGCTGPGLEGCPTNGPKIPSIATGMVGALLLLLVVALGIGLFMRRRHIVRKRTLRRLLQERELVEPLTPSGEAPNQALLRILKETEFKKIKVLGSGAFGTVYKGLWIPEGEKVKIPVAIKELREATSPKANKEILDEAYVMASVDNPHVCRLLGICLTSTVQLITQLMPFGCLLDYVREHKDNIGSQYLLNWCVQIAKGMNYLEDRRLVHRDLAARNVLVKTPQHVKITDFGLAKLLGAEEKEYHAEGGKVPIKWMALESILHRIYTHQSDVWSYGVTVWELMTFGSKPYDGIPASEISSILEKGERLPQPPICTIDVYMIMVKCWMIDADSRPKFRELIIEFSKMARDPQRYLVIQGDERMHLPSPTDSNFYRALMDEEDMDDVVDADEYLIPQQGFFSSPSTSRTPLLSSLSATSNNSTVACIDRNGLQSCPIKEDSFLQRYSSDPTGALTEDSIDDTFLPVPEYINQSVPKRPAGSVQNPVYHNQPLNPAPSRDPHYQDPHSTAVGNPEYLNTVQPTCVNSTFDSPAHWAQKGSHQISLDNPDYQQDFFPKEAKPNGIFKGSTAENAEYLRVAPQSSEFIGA
KDR/Flk-1, sequence (P35968 20-1356): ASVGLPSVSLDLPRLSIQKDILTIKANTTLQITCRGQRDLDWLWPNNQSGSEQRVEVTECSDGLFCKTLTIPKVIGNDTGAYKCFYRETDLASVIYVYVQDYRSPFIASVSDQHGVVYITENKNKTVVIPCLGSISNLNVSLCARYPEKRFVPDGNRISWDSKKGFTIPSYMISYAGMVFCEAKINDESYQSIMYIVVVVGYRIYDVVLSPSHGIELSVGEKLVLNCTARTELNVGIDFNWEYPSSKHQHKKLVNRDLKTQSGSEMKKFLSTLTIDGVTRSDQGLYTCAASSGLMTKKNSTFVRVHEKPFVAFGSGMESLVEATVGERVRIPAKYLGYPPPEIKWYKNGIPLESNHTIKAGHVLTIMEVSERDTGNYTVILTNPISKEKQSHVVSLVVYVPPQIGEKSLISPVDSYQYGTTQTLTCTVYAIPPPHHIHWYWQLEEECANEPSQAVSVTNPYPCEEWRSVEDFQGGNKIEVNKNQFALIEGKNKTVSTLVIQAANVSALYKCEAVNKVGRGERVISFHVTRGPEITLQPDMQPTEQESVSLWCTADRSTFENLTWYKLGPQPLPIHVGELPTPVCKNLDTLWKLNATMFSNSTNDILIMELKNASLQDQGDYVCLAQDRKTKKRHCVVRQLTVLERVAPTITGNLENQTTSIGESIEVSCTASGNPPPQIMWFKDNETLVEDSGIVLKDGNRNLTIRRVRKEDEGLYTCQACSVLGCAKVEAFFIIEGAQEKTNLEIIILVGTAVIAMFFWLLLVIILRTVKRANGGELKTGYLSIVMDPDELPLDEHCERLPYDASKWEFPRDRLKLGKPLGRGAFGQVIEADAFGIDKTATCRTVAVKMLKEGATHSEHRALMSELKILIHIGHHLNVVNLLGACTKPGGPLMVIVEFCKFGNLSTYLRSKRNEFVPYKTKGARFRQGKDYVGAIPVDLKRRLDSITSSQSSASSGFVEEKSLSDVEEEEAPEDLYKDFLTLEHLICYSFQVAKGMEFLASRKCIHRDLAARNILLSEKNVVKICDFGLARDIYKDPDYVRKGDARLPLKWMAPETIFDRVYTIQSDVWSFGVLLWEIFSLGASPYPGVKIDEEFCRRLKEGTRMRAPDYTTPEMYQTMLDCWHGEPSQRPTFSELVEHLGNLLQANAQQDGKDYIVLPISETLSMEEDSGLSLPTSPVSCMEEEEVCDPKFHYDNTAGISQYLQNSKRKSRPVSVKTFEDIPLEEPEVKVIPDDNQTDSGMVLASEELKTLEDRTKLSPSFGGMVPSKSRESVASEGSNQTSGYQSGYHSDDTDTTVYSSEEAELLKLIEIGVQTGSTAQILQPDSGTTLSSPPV
T1 sequence (P00524 2-526): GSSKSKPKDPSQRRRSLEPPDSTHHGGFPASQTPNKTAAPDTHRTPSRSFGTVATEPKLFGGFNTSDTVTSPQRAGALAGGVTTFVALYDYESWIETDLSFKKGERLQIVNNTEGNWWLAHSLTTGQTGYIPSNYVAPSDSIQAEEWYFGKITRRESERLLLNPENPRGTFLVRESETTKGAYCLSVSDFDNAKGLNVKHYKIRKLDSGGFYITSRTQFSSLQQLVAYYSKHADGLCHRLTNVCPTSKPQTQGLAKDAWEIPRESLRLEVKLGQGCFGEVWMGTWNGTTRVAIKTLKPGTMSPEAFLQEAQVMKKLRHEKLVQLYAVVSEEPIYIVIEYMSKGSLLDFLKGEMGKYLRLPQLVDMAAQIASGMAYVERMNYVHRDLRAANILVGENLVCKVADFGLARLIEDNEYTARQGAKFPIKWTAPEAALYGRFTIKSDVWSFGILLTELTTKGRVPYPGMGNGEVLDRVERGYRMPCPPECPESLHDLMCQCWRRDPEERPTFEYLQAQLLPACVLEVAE
eukaryotic elongation factor-2 kinase, and calmodulin-dependent protein kinase III, sequence (P70531 2-724): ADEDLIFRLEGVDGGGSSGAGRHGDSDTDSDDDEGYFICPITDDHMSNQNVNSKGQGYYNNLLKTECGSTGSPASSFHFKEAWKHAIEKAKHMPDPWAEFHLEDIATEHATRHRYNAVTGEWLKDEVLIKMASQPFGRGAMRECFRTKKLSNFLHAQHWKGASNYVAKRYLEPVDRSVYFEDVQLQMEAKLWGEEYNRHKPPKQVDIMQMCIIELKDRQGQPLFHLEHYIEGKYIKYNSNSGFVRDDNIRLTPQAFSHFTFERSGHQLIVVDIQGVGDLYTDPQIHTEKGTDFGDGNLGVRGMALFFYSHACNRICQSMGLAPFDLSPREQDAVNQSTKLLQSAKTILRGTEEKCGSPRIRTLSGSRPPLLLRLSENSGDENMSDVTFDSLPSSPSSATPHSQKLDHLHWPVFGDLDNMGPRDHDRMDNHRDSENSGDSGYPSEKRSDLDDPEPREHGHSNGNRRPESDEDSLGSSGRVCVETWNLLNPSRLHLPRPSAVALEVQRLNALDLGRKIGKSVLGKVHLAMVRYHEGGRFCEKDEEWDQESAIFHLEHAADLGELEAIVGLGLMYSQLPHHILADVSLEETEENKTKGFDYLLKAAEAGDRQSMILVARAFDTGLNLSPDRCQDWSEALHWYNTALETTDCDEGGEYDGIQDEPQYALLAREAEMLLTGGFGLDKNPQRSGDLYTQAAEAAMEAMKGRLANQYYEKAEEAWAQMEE
Flt-1, sequence (P17948 27-1338, species assumed): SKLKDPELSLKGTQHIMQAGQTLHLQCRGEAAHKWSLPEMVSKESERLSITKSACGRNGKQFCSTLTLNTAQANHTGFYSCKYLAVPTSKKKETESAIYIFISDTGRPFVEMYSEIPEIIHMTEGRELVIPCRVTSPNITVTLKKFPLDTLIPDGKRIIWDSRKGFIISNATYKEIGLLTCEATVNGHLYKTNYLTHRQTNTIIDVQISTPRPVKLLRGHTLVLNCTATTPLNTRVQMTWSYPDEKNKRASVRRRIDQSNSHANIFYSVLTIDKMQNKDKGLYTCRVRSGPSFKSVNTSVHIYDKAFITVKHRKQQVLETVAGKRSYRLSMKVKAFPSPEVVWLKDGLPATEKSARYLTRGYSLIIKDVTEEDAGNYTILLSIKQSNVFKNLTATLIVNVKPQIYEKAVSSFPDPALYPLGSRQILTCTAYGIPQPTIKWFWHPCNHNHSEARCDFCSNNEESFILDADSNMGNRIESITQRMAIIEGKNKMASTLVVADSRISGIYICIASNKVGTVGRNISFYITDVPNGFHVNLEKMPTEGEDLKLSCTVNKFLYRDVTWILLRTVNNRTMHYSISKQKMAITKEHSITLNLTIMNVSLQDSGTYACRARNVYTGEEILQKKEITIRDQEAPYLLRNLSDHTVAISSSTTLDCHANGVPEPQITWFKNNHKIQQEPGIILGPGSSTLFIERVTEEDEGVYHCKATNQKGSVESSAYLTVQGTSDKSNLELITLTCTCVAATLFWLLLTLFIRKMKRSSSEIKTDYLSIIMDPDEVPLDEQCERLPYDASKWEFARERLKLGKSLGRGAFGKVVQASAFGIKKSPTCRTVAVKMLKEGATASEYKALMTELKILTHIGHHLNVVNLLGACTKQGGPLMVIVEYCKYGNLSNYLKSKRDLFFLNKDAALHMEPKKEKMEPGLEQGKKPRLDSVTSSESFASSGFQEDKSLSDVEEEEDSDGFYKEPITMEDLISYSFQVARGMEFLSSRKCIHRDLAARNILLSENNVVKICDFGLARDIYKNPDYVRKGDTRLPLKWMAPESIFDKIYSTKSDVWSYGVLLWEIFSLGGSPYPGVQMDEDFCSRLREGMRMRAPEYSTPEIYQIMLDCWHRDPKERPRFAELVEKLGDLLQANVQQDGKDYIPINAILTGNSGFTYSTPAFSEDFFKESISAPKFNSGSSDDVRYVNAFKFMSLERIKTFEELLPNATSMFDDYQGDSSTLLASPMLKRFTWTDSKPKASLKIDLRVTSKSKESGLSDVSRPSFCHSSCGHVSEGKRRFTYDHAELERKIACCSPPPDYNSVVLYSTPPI

In the case of `Cc1[nH]c(/C=C2\C(=O)Nc3ccccc32)c(C)c1CCC(=O)O` [SU6668], the “mode of inhibition of receptor for fibroblast growth factor with respect to ATP” value in assay [1] was “compete with ATP”.
With `O=c1c(O)c(-c2ccc(O)c(O)c2)oc2cc(O)cc(O)c12` [quercetin], the “mode of inhibition of v-Src with respect to ATP” value on v-Src [2] is “competition with ATP”. Also, at v-Src [2] (read-out: IC50 on v-Src), the IC50 was 3000 nM.
As to `O=c1c(-c2ccc(O)cc2)coc2cc(O)cc(O)c12` [genistein], the “mode of inhibition of PTK activity of EGFR with respect to ATP” value (from here on “mode of inhibition of PTK activity … to ATP”) in the assay on EGFR [3] was “competition with ATP”.
Turning to `CNc1cc2c(Nc3cccc(Br)c3)ncnc2cn1` [PD158780, 4‐[(3‐bromophenyl)amino]‐6‐(methylamino)‐pyrido[3,4‐d]pyrimidine], in the assay with EGFR [3], the “mode of inhibition of PTK activity … to ATP” value is on record as “competition with ATP”.
For the compound `O=CN/C=C/c1cc(O)ccc1O` [erbstatin], in the assay on EGFR [3], the “mode of inhibition of PTK activity … to ATP” value was “competition with ATP”.
As for `CC(C)=CC[C@@H](OC(=O)CC(C)(C)O)C1=CC(=O)c2c(O)ccc(O)c2C1=O` [β‐HIVS, β‐Hydroxyisovalerylshikonin], the “change in activity of catalytic subunit of protein kinase A” value in assay [4] is “practically no change”. Further, in the assay on PTK, the “intensities of bands of proteins phosphorylated by PTK” value is “decreased markedly”. Moreover, the concentration for half-maximal inhibition (IC50) against KDR/Flk-1 is about 2500 nM; at v-Src [5], about 1000 nM; in the assay on A431 cells it was about 11000 nM; against Flt-1 it was over 5000 nM; against EGFR [7], about 700 nM; with SR-3Y1 cells, about 1200 nM. For the same compound, at KDR/Flk-1 (KDR/Flk-1-NIH3T3 cells), the “concentration needed to inhibit the tyrosine kinase activity of KDR/Flk-1” value was “more than 1 M”. For the same compound, the “inhibition of PTK activity of KDR/Flk-1 (in words)” value at KDR/Flk-1 (KDR/Flk-1-NIH3T3 cells) was “weakly inhibited”; against KDR/Flk-1 (KDR/Flk-1-NIH3T3 cells, listed as -HIVS) it was “inhibited significantly”. Also, the “intensities of bands of proteins phosphorylated by protein kinase C” value in the assay on protein kinase C is “not significantly altered”. Also, the “inhibition of tyrosine kinase activity of v-Src (in words)” value at v-Src [5] is given as “strongly inhibited”. For the same compound, the “mode of inhibition of v-Src with respect to ATP” value on v-Src [5] (Lineweaver-Burk, 1 and 10 M inhibitor) is “non‐competitive”; on v-Src [5] (Lineweaver-Burk, 1 and 10 M inhibitor, listed as -HIVS), “did not compete with ATP”. In addition, the “mode of inhibition of v-Src with respect to substrate Raytide” value at v-Src [5] (Lineweaver-Burk, various Raytide concentrations, 1 and 10 M inhibitor) is reported as “competitively inhibited”. Also, the induction of cell-death result in the assay on NCI-H522 and in the assay with DMS114 was “efficiently induced cell-death” throughout. Further, the “intensities of bands of proteins phosphorylated by eEF-2 kinase and CaMK III” value in [6] is reported as “not significantly altered”. Moreover, in the assay on protein kinase A, the “intensities of bands of proteins phosphorylated by protein kinase A” value is recorded as “not significantly altered”. In addition, the induction of apoptosis entry in the assay on HL-60 cells is recorded as “induced apoptosis”. Besides, the “inhibition of tyrosine kinase activity of EGFR (in words)” value against EGFR [7] is given as “strongly inhibited”. Besides, the “inhibition of tyrosine phosphorylation of EGFR” value at EGFR [7] is “evident”.
On to `O=C(O)c1cc(N(Cc2ccccc2O)Cc2cc(O)ccc2O)ccc1O` [lavendastin-A], for which the “mode of inhibition of PTK activity … to ATP” value in the assay with EGFR [3] is given as “competition with ATP”.
`CC(C)=CC[C@@H](O)C1=CC(=O)c2c(O)ccc(O)c2C1=O` [shikonin, reference compound]: in the assay on topoisomerases II, the “inhibition of topoisomerase II activity” value was “inhibit”. Besides, in the assay on PTK, the “intensities of bands of proteins phosphorylated by PTK” value was “decreased markedly”. In addition, on KDR/Flk-1 (KDR/Flk-1-NIH3T3 cells), the “inhibition of PTK activity of KDR/Flk-1 (in words)” value was “inhibited significantly”. In addition, the “intensities of bands of proteins phosphorylated by protein kinase C” value with protein kinase C is reported as “not significantly altered”. In addition, on v-Src [5] (lowest level reached over concentrations tested (Fig. 5)), the “PTK activity of v-Src remaining in the presence of inhibitor” value was at least 50%. In [8], the “induction of cell death across the panel” value is “induced cell death in a wide variety of tumor cell lines”. In the assay with topoisomerases I, the “inhibition of topoisomerase I activity” value is given as “inhibit”. Further, in assay [6], the “intensities of bands of proteins phosphorylated by eEF-2 kinase and CaMK III” value is “not significantly altered”. Also, the “intensities of bands of proteins phosphorylated by protein kinase A” value with protein kinase A is “not significantly altered”. The antitumor activity result in the assay with sarcoma 180 tumor cells is listed as “exhibits antitumor activity”. For the same compound, the “IC50 for EGFR” value at EGFR [7] (EGFR isolated from A431 cells, estimated from Fig. 4B) is listed as “impossible to estimate”. The “concentration required for inhibition of the PTK activity of EGFR” value on EGFR [7] (Fig. 4A) is listed as “more than 10 M”.
